One data set has as its system BCL-2 siRNA. Description: siRNA binding with various platinum species by MALDI-TOF-MS. The note with it: 10-fold excess of platinum species. On the procedure:
A single-stranded siRNA (UCAGGUACUCAGUCAUCCACATT) (SEQ ID NO: 3) was mixed with OxaPt(II) at a molar ratio of 1:10 in RNAase free water (RNA final concentration: 50 μM; Pt final concentration: 500 μM; total volume: 100 μL). The reaction mixture was placed in a 37° C. incubator and 10 μL of sample were removed at various time points to obtain MALDI-TOF-MS spectra (positive model). Analogous methods were employed to obtain spectra of the reaction products of siRNA with OxaPt(IV), CisPt(II) and CisPt(IV).
MALDI/TOF MS was used to ascertain the kinetics of platinum-RNA adduct formation using BCL-2 siRNA that was incubated with a 10-fold excess of various platinum(II) or platinum(IV) species. […] AAS measurements of siRNA that had been isolated after co-incubation with various platinum species was conducted to determine the concentration of Pt-siRNA adducts formed over time.

The nature of data set [1]: photostability under continuous laser irradiation. The format is physicochemical. From the text:
FIG. 31D is a plot showing measurements of the photostability of various emissive components of core-shell nanoparticles under continuous irradiation. Note, the same excitation energies were utilized as in FIG. 31C; and, emission was detected using various excitation and emission filters. The photostability of DiR in THF (DiR in THF; black) was included for comparative purposes.
In addition to the emission of these extrinsic reporters, bioluminescence due to the luciferaseluciferin reaction and RFP fluorescence upon 535 nm excitation are also included in FIG. 31C, generating a spectral comparison of all reporters that were subsequently utilized for in vivo and ex vivo imaging (vide infra). Prior to embarking on comparisons of in vivo imaging with different reporters, we examined the photostability of each of the emissive components within the core-shell nanoparticles.

The conditions of data set [2]: read-out: in vitro IC50; cited from earlier work.
In another data set the test system is 5′-GMP. As to the kind of experiment: 5′-GMP binding with various platinum species by 1HNMR. The note with it: 10 mM 5′-GMP, 5 mM Pt, 37° C. The protocol:
(10 mM) 5′-GMP and (5 mM) OxaPt(II) were mixed in 700 μL of D2O/H2O (v/v=1:9), transferred to an NMR tube and placed in a 37° C. water bath for various time periods prior to ^1HNMR measurement. […] The binding kinetics of 5′-GMP to each platinum species were determined by measuring the relative amounts of free and Pt-bound 5′-GMP at each time point, integrating the ratio of the ^1HNMR peaks at 8.5 ppm to 8.09 ppm.
OxaPt(II) and CisPt(II) are known to bind to guanine (G) and adenine (A) bases in both DNA and RNA. […] Formation of Pt-(5′-GMP)2 adducts were subsequently monitored by ESI-MS (FIG. 4A and FIG. 4B) and by MALDI/TOF MS (data not shown). Differences in the kinetics of adduct formation by various platinum(II) and platinum(IV) species were subsequently studied by ^1H NMR spectroscopy under similar conditions.

Here are results for four compounds from US10751423B2 (Massachusetts Institute of Technology, priority 2016, dated 2020).

Non-standard residues stand in square brackets, D forms with d. Residues, ends and D or L forms follow the SMILES beside them. *: point of attachment. Dolaproine = CO[C@@H]([C@@H]1CCCN1)[C@@H](C)C(=O)O; Dil = CC[C@H](C)[C@H](NC)[C@@H](CC(=O)O)OC; X1 = C[C@@H](N*)[C@@H](O)c1ccccc1; NMeV = CN[C@H](C(=O)O)C(C)C

Take `N.N.[Cl][Pt][Cl]` [CisPt(II), cisplatin]: the “time at which Pt-siRNA adducts could be detected” value in the data set with BCL-2 siRNA is listed as ≤ 30 m.
As for `CCCCCCCCCCCCCCCCCCN1C(=CC=CC=CC=CC2=[N+](CCCCCCCCCCCCCCCCCC)c3ccccc3C2(C)C)C(C)(C)c2ccccc21.[I-]` [DiR, 1,1′-dioctadecyl-3,3,3′,3′-tetramethylindotricarbocyanine iodide], in data set [1] (DiR incorporated within the PCL shell of the nanoparticles, 1 h), the “initial emission intensity maintained” value was 88%. Besides, the fluorescence decrease entry in data set [1] (free DiR in THF, 1 h of continuous excitation) is on record as “over 30%”.
As usually defined, the IC50 is the concentration needed to halve the response being measured. As to `CC[C@H](C)[C@@H]([C@@H](CC(=O)N1CCC[C@H]1[C@H](OC)[C@@H](C)C(=O)N[C@H](C)[C@@H](O)c1ccccc1)OC)N(C)C(=O)[C@@H](NC(=O)[C@@H](NC)C(C)C)C(C)C` [MMAE, monomethyl auristatin E] (H-[NMeV]V[Dil][Dolaproine]-X1), the half-inhibitory concentration (IC50) in data set [2] was 0.2 to 0.6 nM.
`O=C1[O][Pt]2([NH][C@@H]3CCCC[C@H]3[NH]2)[O]C1=O` [OxaPt(II), Oxaliplatin]: the “time at which Pt-siRNA adducts could be detected” value with BCL-2 siRNA came to 1 h. The “DACHPt(5′-GMP)2 adducts as share of the 5′-GMP pool” value with 5′-GMP (30 m incubation) is “approximately 10%”; in the data set with 5′-GMP (6 h incubation), > 40%.
